{"source": "patent US20220280513A1", "about": "“ENHANCING THE ANTIVIRAL EFFICACY OF RNA VIRUS INHIBITION BY COMBINATION WITH MODULATORS OF PYRIMIDINE METABOLISM” (The Board of Trustees of the Leland Stanford Junior …, priority 2019, published 2022)", "system": "DENV-2 virus", "assay": "Pilot antiviral assay, DENV-Luc replication in A549 cells (FIG. 2)", "type": "cell-based, dengue serotype 2 (DENV-2) strain 16681", "description": "We therefore focused our efforts on evaluating CPU in combination with GSK983. Using an infectious clone of dengue serotype 2 (DENV-2) strain 16681 engineered to express a luciferase reporter, the efficacy and cytotoxicity of combinations of GSK983 and CPU were assessed in infected or uninfected cultures of the A549 lung carcinoma cell line (FIG. 2). […] However, a combination of 0.2 μM GSK and 250 μM CPU inhibited ca. 50% of virus replication.\nDENV-Luc reporter virus generation: The design of the pDENV-Luc infectious clone derived from dengue serotype 2 (DENV-2) strain 16681 was described in detail by Marceau et al (Marceau et al., 2016). The plasmid was linearized with Xbal and in vitro transcribed into the genomic RNA of DENV-Luc virus using the T7 Megascript Kit (Ambion) in the presence of m7G(5′)ppp(5′)G RNA Cap Structure Analog (NEB). 5 μg DENV-Luc RNA was electroporated into 2×10^6 Vero cells. The transfected cells were resuspended with Dulbecco's modified Eagle's medium (DMEM; Invitrogen) with 10% FBS and 100 U/ml penicillin-streptomycin and transferred into a T-175 flask incubated at 37° C. with 5% CO2. Supernatants were collected and replenished with fresh medium every 24 h from day 17 to 24 post-transfection, pooled together, clarified by centrifugation and stored in aliquots at −80° C. The amount of infectious DENV-Luc virus in the stock was titrated using the TCID50 assay and calculated by the Spearman & Kärber algorithm as described previously (Hierholzer and Killington, 1996).\nPilot Antiviral Assays (for FIG. 2): A549 cells were plated overnight at 20,000 cells/well in 24-well plates in complete DMEM and incubated for 24 h at 37° C. Cell were then treated with pyrimidine de novo synthesis and/or salvage inhibitors in DMEM supplemented with 20 μM uridine. Four hours after drug addition, cells were infected with DENV-2 virus at a MOI=0.01. After 48 h, DENV-Luc replication was monitored by the production of Renilla luciferase, which was measured using the Renilla-Glo Luciferase Assay System (Promega) according to the specifications of the manufacturer. For the accompanying cell viability assay, A549 cells were seeded into 24-well plates at a density of 20,000 cells/well incubated for 24 h at 37° C. Cell were then treated with pyrimidine de novo synthesis and/or salvage inhibitors in DMEM supplemented with 20 μM uridine. Following 48h treatment, cells were harvested, and the density of viable cells was determined by flow cytometry (FSC/SSC) using a BD Accuri C6 Flow Cytometer.", "data": [{"smiles": "O=c1ccn([C@@H]2C=C(CO)[C@@H](O)[C@H]2O)c(=O)[nH]1", "note": "[CPU, 1-((1R,4R,5S)-4,5-dihydroxy-3-(hydroxymethyl)cyclopent-2-en-1-yl)pyrimidine-2,4(1H,3H)-dione]", "values": [{"measurement": "decrease of DENV-2 titer, synergy", "setting": "CPU combined with GSK983, exogenous uridine", "result": "synergized with GSK983"}, {"measurement": "virus replication", "setting": "CPU dose of 1 mM in combination with GSK, 20 μM exogenous uridine", "result": "suppressed almost completely"}, {"measurement": "inhibition of replication of DENV-2 virus, single agent", "setting": "alone, 20 μM exogenous uridine", "result": "neither GSK nor CPU alone inhibited replication"}, {"measurement": "inhibition of virus replication", "setting": "combination of 0.2 μM GSK and 250 μM CPU, 20 μM exogenous uridine", "result": "ca. 50%"}]}]}
